Activity calls are given as the source filed them.
Assays:
[1] = test system: HEK293; test: NOD2 signaling inhibitors in MDP-stimulated cells, cell-based, uHTS, luminescence (AID 2001); assay type: functional; conditions: Homo sapiens
[2] = target: Paired box protein Pax-8 (Homo sapiens, UniProt Q06710); test: inhibitors of PAX8-driven TPO luciferase reporter, dose response, RMG-I cells, cherry-pick (AID 687027); assay type: functional, cell-based;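 also: luciferase reporter driven by Pax8 target thyroperoxidase promoter measured by SteadyGlo luminescence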
[3] = target: Tumor necrosis factor (Homo sapiens, UniProt P01375); test: TNFa-triggered NF-kB activation inhibitors, SAR follow-up, cell-based, revised (AID 2337); assay type: functional
[4] = test system: HEK293; test: cells; conditions: Homo sapiens
[5] = test system: HEK293; test: cells; assay type: functional, cell-based; conditions: Homo sapiens
[6] = control 3'UTR Renilla luciferase suppression, dose response, counter-screen for Shn3 inhibitor project, cell-based, Clone20-Shn3RL, cherry-picked (AID 624133); assay type: functional
[7] = test system: HEK293; test: cells; assay type: functional, cell-based; conditions: Homo sapiens; remark: listed apart in the source
[8] = target: Nucleotide-binding oligomerization domain-containing protein 1 (Homo sapiens, UniProt Q9Y239); test: NOD1 signaling inhibitors, SAR follow-up, revised (AID 2333); assay type: functional
[9] = test system: HEK293; test: cells; assay type: functional, cell-based; conditions: Homo sapiens; remark: listed apart in the source
[10] = Shn3 3'UTR reporter inhibitors, dose response, cell-based, Clone20 osteoblasts, firefly luciferase, cherry-picked (AID 624132); assay type: functional;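 also: firefly luciferase luminescence from reporter carrying the Shn3 3'UTR in osteoblasts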
[11] = test system: HEK293; test: NOD1 signaling inhibitors, primary screen, cell-based, luminescence, uHTS (AID 1578); assay type: functional; conditions: Homo sapiens
[12] = HepG2 cell cytotoxicity, dose response, cytotoxicity control for Shn3 inhibitor project, CellTiter-Glo, cherry-picked (AID 624134); assay type: functional, cell-based
[13] = target: Nucleotide-binding oligomerization domain-containing protein 2 (Homo sapiens, UniProt Q9HC29); test: NOD2 signaling inhibitors, cell-based, luminescence, uHTS, HEK293 (AID 1566); assay type: functional
[14] = target: Intestinal-type alkaline phosphatase (Homo sapiens, UniProt P09923); test: activation of human intestinal alkaline phosphatase – biochemical, dose response (AID 488873); assay type: functional
[15] = target: T1, Alkaline phosphatase, tissue-nonspecific isozyme (Homo sapiens, UniProt P05186); test: TNAP enzyme activators, dose response, selectivity assay for mouse IAP activator project, biochemical, TNAP isozyme, mouse IAP uHTS hits (AID 488880); assay type: functional
T1 sequence (P05186 whole entry): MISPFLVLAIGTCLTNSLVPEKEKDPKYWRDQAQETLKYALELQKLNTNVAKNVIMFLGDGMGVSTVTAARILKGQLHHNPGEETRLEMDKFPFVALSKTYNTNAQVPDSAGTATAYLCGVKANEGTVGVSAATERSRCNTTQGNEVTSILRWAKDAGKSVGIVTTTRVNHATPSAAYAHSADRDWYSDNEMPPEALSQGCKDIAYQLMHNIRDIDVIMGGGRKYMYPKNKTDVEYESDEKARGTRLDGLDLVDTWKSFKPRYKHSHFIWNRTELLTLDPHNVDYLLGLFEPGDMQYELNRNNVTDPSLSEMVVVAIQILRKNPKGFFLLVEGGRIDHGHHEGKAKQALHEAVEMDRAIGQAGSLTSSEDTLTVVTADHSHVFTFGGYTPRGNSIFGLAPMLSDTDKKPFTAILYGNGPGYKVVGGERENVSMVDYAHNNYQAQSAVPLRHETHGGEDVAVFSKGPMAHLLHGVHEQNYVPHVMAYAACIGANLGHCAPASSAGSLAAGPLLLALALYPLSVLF

[16] = target: Intestinal-type alkaline phosphatase (Mus musculus, UniProt P24822); test: mouse intestinal alkaline phosphatase activators, dose response, biochemical, luminescence, uHTS hits (AID 488783); assay type: functional
[17] = cytotoxicity in HEK-293T cells, dose response, cytotoxicity control for TCR NF-kB inhibitor project, luminescence, T-cell screen hits (AID 489026); assay type: functional, cell-based;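 also: cells exposed to compound about 14 hours before the viability readout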
[18] = insulin promoter down-regulators in MIN6 cells, imaging, high-content screening, mouse beta cells (AID 1628); assay type: functional
[19] = cytotoxicity in MIN6 insulinoma cells, dose response, cytotoxicity control, cell-based, mouse insulinoma (AID 2122); assay type: functional;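 also: confirmatory high-throughput counterscreen run to flag cytotoxic compounds; mouse MIN-6 beta cells carrying an insulin promoter eGFP reporter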
[20] = target: Phosphomannomutase 2 (Homo sapiens, UniProt O15305); test: Counter screen SAR assay for PMM2 inhibitors via a fluorescence intensity assay. [Related pubchem assays (depositor defined):AID1545, AID1574]
[21] = target: T2, Mannose-6-phosphate isomerase (Homo sapiens, UniProt P34949); test: PMI enzyme inhibitors, confirmation, biochemical, fluorescence intensity (AID 1535)
T2 sequence (P34949 whole entry): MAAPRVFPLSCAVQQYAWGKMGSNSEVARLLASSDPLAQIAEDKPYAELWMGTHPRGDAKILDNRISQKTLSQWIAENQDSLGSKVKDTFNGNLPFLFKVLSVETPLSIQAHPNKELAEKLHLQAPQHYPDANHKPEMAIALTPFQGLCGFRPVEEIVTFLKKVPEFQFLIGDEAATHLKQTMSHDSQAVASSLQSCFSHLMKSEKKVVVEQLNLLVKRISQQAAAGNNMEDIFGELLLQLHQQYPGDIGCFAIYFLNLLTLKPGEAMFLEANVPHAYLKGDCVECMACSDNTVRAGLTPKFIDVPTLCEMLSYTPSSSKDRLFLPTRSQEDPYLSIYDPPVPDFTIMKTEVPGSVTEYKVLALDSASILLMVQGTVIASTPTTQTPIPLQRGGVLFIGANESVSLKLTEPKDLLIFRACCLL

[22] = target: T3, Zinc finger protein mex-5 (Caenorhabditis elegans, UniProt Q9XUB2); test: MEX-5/TCR-2 RNA interaction inhibitors, dose response, biochemical, C. elegans, fluorescence polarization (AID 1960)
T3 sequence (Q9XUB2 whole entry): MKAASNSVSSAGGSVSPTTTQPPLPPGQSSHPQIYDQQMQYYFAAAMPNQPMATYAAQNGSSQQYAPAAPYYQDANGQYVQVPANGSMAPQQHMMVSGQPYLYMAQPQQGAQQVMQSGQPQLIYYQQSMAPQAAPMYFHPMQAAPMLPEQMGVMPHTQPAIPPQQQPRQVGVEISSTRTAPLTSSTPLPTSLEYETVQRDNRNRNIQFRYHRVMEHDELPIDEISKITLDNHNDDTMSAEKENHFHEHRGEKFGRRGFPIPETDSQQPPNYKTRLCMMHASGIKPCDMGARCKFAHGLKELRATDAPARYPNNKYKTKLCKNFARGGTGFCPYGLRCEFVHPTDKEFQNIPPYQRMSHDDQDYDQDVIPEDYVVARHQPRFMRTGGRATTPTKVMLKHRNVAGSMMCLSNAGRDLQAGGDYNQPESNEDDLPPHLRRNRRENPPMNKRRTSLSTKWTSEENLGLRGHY

[23] = target: T4, RNA-binding protein pos-1 (Caenorhabditis elegans, UniProt G5EF15); test: inhibitors of POS-1/mex-3 RNA binding, dose response, biochemical, fluorescence polarization (AID 1964);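 also: purified POS-1 fused to maltose binding protein made in E. coli; potency of compounds blocking POS-1 binding to fluorescent RNA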
T4 sequence (G5EF15 whole entry): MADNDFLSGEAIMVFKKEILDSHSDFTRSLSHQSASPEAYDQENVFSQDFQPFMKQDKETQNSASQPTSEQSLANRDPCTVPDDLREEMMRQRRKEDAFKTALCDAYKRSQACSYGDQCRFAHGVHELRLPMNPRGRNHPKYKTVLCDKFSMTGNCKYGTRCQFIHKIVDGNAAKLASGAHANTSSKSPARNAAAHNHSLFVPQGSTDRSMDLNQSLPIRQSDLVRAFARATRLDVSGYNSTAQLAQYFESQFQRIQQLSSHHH

[24] = target: T2, Mannose-6-phosphate isomerase; test: inhibitors of human PMI, primary screen, biochemical, fluorescence intensity, coupled assay (AID 1209)
[25] = target: DNA dC->dU-editing enzyme APOBEC-3A (Homo sapiens, UniProt P31941); test: APOBEC3A DNA deaminase inhibitors, dose response, biochemical (AID 504722); assay type: functional
[26] = target: DNA dC->dU-editing enzyme APOBEC-3G (Homo sapiens, UniProt Q9HC16); test: Dose Response confirmation of small molecule APOBEC3G DNA Deaminase Inhibitors via a fluorescence-based single-stranded DNA deaminase assay. [Related pubchem assays (depositor defined):AID493012, AID493028]; assay type: functional
[27] = Luminescence Cell-Based Dose Retest to Confirm Inhibitors of Cancer Stem Cells. [Related pubchem assays (depositor defined):AID2717, AID2721]; assay type: functional; conditions: Homo sapiens
[28] = test system: INS1; test: beta cell apoptosis inhibitors, cytokine rescue, dose response, luminescence, retest (AID 449756); assay type: functional, cell-based; conditions: Rattus norvegicus;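 also: cell death triggered by IL-1 beta plus TNF-alpha plus IFN-gamma mixture; protective hits raise ATP signal compared with cytokine alone wells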
[29] = target: Microphthalmia-associated transcription factor (Homo sapiens, UniProt O75030); test: TRPM1 promoter luciferase signal decrease, dose response, MITF inhibitor project, cell-based, SK-MEL-5, cherry-picked, set 3 (AID 493073); assay type: functional
[30] = test system: A-375; test: A375 melanoma cell viability reduction, dose response, counter-screen for MITF modulator project, cherry-pick samples, set 2 (AID 540335); assay type: functional, cell-based; conditions: Homo sapiens
[31] = NIH-3T3 fibroblast cytotoxicity, dose response, cytotoxicity control, cell-based, fluorescence, Alamar Blue, secondary assay (AID 2327); assay type: functional;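 also: NIH-3T3 mouse fibroblasts cultured with fluconazole at 8 µg/mL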
[32] = C. albicans growth with fluconazole, confirmation, fluorescence, retest (AID 2467); assay type: functional, cell-based
[33] = target: Lysine-specific demethylase 4C (Homo sapiens, UniProt Q9H3R0); test: GASC-1 (JMJD2C) histone demethylase inhibitors, dose response, biochemical, DELFIA europium, cherry-picked samples (AID 488835); assay type: functional

Sequence of Intestinal-type alkaline phosphatase (Mus musculus, UniProt P24822) (P24822 whole entry): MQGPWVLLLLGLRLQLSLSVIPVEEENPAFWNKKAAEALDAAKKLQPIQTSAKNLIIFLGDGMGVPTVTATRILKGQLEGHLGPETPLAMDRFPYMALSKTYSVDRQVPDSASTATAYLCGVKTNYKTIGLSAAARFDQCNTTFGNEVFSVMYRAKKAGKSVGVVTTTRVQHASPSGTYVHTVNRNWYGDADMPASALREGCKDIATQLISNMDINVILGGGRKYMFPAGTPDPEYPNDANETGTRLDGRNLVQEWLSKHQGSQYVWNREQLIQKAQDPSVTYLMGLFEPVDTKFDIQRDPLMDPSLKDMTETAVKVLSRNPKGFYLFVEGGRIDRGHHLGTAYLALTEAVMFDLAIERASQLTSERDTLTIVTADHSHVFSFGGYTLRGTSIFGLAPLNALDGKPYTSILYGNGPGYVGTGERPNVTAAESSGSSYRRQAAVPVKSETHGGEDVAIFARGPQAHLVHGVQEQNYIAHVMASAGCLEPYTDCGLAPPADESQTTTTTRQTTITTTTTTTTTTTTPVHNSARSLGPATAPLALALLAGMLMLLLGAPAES
Sequence of Intestinal-type alkaline phosphatase (Homo sapiens, UniProt P09923) (P09923 whole entry): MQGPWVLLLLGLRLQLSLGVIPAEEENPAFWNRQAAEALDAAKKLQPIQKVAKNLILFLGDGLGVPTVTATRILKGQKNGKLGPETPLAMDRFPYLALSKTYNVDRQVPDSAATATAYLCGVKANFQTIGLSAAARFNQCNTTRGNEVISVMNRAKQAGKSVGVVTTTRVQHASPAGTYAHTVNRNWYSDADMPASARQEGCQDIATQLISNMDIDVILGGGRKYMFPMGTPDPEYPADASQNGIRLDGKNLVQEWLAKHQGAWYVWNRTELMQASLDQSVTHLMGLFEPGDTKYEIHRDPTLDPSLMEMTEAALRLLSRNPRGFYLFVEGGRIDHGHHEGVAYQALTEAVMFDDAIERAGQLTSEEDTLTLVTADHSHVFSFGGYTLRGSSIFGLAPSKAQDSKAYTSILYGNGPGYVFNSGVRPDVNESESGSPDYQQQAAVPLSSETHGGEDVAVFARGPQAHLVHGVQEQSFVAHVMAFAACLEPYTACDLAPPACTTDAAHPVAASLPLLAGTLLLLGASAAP
Sequence of Phosphomannomutase 2 (O15305 whole entry): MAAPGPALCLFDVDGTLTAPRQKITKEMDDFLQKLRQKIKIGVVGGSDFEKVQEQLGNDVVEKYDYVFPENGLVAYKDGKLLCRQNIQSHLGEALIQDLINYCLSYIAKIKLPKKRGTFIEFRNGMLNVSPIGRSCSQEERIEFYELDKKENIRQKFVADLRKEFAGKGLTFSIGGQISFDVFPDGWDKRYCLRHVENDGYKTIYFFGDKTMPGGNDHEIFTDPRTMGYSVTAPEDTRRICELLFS
Sequence of Nucleotide-binding oligomerization domain-containing protein 2 (Q9HC29 whole entry, the tested form may be a part): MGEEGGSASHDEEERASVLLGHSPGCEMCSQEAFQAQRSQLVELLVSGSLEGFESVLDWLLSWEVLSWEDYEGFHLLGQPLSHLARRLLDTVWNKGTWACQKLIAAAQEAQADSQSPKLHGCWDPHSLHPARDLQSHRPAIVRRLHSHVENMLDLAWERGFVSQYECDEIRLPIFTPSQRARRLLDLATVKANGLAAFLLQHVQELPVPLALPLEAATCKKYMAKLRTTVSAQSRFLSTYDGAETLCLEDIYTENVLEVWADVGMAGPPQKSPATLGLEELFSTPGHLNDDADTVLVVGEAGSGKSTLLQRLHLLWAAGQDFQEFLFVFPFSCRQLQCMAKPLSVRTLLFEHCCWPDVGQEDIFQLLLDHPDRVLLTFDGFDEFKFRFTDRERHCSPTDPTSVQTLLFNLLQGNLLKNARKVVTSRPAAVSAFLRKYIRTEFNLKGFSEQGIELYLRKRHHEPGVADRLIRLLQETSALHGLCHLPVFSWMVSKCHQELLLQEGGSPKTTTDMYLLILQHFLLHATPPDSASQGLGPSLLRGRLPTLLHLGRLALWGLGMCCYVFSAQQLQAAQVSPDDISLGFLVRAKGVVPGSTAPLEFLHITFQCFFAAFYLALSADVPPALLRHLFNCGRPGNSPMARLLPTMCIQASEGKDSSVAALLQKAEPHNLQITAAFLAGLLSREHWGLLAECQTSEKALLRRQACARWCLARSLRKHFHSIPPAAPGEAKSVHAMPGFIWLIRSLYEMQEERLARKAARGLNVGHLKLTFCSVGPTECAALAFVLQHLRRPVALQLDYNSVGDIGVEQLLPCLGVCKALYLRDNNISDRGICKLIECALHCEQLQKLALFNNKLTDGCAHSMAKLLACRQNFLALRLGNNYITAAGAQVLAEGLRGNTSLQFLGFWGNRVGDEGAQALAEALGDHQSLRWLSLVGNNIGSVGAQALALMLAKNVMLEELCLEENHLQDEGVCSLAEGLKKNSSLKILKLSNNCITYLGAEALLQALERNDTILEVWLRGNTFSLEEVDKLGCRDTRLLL
Sequence of Paired box protein Pax-8 (Q06710 whole entry): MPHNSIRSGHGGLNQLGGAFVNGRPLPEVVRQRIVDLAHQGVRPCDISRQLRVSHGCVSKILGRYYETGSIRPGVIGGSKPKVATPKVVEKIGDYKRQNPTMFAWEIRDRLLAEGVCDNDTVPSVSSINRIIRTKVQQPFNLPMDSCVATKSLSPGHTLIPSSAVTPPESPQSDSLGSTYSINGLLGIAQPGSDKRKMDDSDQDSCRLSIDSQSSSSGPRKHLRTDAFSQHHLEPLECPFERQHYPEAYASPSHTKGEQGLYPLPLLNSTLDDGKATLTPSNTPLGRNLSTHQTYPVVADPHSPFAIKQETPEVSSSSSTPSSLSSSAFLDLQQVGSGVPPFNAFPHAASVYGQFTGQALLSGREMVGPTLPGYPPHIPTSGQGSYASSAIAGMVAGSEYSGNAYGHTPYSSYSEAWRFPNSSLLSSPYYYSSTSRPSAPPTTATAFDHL
Sequence of DNA dC->dU-editing enzyme APOBEC-3G (Q9HC16 whole entry): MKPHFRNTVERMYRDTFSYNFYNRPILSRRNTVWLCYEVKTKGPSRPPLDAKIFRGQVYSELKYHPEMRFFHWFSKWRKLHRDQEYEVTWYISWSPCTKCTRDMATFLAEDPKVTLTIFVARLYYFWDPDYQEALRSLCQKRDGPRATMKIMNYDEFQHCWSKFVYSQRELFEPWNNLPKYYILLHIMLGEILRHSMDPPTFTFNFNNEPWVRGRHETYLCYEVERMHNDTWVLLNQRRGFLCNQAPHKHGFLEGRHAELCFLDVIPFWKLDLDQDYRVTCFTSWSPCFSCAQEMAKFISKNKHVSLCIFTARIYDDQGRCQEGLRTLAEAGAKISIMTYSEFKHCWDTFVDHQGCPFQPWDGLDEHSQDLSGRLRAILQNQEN
Sequence of DNA dC->dU-editing enzyme APOBEC-3A (P31941 whole entry): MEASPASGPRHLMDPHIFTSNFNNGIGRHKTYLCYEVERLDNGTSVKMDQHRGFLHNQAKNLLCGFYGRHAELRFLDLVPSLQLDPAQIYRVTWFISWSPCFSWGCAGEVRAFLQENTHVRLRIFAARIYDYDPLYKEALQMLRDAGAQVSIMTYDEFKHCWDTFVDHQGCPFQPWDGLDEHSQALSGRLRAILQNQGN
Sequence of Tumor necrosis factor (P01375 whole entry): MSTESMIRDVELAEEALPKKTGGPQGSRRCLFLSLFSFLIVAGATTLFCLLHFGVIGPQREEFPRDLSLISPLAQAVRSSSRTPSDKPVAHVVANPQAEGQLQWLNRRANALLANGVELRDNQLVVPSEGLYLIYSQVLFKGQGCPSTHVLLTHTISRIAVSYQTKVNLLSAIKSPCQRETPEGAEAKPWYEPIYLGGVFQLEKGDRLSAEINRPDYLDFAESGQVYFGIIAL
Sequence of Nucleotide-binding oligomerization domain-containing protein 1 (Q9Y239 whole entry, the tested form may be a part): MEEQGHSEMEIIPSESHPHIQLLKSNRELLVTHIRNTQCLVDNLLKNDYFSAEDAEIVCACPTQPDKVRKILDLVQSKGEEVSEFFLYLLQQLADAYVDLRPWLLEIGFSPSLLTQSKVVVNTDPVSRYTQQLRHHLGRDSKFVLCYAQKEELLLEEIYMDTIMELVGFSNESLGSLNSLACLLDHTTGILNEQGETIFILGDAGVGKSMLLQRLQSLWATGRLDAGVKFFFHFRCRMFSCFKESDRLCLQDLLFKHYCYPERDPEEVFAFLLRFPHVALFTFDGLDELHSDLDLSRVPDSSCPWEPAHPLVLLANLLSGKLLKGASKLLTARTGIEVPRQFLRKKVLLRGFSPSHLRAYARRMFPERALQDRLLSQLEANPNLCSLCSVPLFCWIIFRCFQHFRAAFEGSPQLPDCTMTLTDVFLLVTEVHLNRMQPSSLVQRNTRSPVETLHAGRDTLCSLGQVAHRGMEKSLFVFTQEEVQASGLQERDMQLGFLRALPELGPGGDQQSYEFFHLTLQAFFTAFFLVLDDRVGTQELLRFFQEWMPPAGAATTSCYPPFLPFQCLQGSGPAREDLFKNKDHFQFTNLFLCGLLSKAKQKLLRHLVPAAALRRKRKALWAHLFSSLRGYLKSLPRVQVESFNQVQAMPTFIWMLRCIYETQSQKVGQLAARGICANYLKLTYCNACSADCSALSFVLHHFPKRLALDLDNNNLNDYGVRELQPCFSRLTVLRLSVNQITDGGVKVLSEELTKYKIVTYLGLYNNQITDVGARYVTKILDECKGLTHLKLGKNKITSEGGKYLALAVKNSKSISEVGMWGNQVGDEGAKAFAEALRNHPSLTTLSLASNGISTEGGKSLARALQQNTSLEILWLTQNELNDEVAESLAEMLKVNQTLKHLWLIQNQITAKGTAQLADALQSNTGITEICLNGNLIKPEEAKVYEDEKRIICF

Cc1ccc(S(=O)(=O)NCc2ccc(C(=O)N3CCN(c4ccc([N+](=O)[O-])cc4)CC3)cc2)cc1
IC50 [1]: 7.59 µM (active) | AC50 [2]: 6.91 µM (active) | IC50 [3]: 11.4 µM (active) | IC50 [4]: > 20 µM (inactive) | IC50 [5]: > 20 µM (inactive) | AC50 [6]: 11.7 µM (active) | IC50 [7]: 4.67 µM (active) | IC50 [8]: 9.8 µM (active) | IC50 [9]: 16.2 µM (active) | AC50 [10]: 3.79 µM (active) | EC50 [11]: 4.26 µM (active) | AC50 [12]: 39.8 µM (active) | EC50 [13]: 6.65 µM (active)

Cc1cc(C)c(S(=O)(=O)Nc2ccc(O)c(Sc3nnc[nH]3)c2)cc1C
EC50 [14]: 22.5 µM (active) | EC50 [15]: 42.4 µM (active) | EC50 [16]: 24.7 µM (active)

COc1ccc(Br)cc1/C(C)=N/NC1=NCCN1
IC50 [17]: > 80 µM (inactive) | IC50 [18]: 4.74 µM (active) | IC50 [19]: 3.47 µM (active)

FC(F)(F)c1nnc(/N=c2\ssnc2Cl)s1
IC50 [20]: > 100 µM (inactive) | IC50 [21]: 20.8 µM (active)

Cc1ccc(N2C(=O)/C(=C/c3ccc(CN(CCC#N)S(C)(=O)=O)o3)C(=O)NC2=S)cc1
EC50 [22]: 37.8 µM (active) | EC50 [14]: 36.2 µM (active) | EC50 [15]: 40.4 µM (active) | EC50 [23]: > 300 µM (not active) | EC50 [16]: 80.5 µM (active)

Cc1ccc(C)n1-c1n[nH]c(=S)[nH]1
IC50 [24]: 13.7 µM (active) | IC50 [25]: > 100 µM (inactive) | IC50 [20]: > 100 µM (inactive) | IC50 [26]: 6.12 µM (active) | IC50 [21]: 41.8 µM (active)

Cc1ccc(C(C)C)c(OCc2n[n+](CC(=O)c3ccc(OC(F)F)cc3)c3n2CCCCC3)c1
AC50 [27]: 5.68 µM (active) | AC50 [28]: 3.09 µM (active) | IC50 [18]: 1.27 µM (active) | IC50 [19]: 1.13 µM (active) | AC50 [29]: 9.17 µM (active) | AC50 [30]: 20.1 µM (active) | EC50 [31]: > 150 µM (inactive) | EC50 [32]: 0.74 µM (active)

COc1ccc(/C=N/Nc2cc(=O)n(C)c(=O)n2C)cc1OC
AC50 [33]: 7.21 µM (active)

— ChEMBL document CHEMBL1201862, “PubChem BioAssay data set” (2004)
